Here are results for eight molecules from PubChem BioAssay AID1918947 (Molecular Pharmacology Branch, DTP, NCI, 2023).

For the assay, the system named is A498 complex spheroid viability. The assay is described as follows: Anticancer human tumor A498 cell line growth inhibition.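 For all read-outs here: spheroids exposed to agents for seven days before readout.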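 For viability, T/C: 100% = DMSO vehicle-treated spheroids.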 As to conditions: for viability, T/C: stronger effect = lower value. The method, boiled down:
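Drug combinations with the LSD1 inhibitor iadademstat tested on tumor cells co-cultured as spheroids with endothelial cells and mesenchymal stem cells. Concentrations descended in half-log increments from clinical Cmax or 10 microM.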

[1] abbreviates: curve of first compound, second compound 0.1 µM.
Where [2] appears, read: curve of first compound, second compound 0.316 µM.
Where [3] appears, read: curve of first compound, second compound 1 µM.
[4] abbreviates: curve of first compound, second compound 3.16 µM.
[5] abbreviates: curve of first compound, second compound 10 µM.
The mark [6] stands for this setting: second compound 0.1 µM, first compound 0.0316 µM.
The mark [7] stands for this setting: second compound 0.1 µM, first compound 0.1 µM.
[8] abbreviates: second compound 0.1 µM, first compound 0.316 µM.
Where [9] appears, read: second compound 0.1 µM, first compound 1 µM.
The mark [10] stands for this setting: second compound 0.1 µM, first compound 3.16 µM.
[11] abbreviates: second compound 0.1 µM, first compound 10 µM.
[12] abbreviates: second compound 0.316 µM, first compound 0.0316 µM.
[13] abbreviates: second compound 0.316 µM, first compound 0.1 µM.
Where [14] appears, read: second compound 0.316 µM, first compound 0.316 µM.
The mark [15] stands for this setting: second compound 0.316 µM, first compound 1 µM.
Setting [16] is: second compound 0.316 µM, first compound 3.16 µM.
[17] abbreviates: second compound 0.316 µM, first compound 10 µM.
[18] abbreviates: second compound 1 µM, first compound 0.0316 µM.
Where [19] appears, read: second compound 1 µM, first compound 0.1 µM.
[20] abbreviates: second compound 1 µM, first compound 0.316 µM.
The mark [21] stands for this setting: second compound 1 µM, first compound 1 µM.
The mark [22] stands for this setting: second compound 1 µM, first compound 3.16 µM.
[23] abbreviates: second compound 1 µM, first compound 10 µM.
The mark [24] stands for this setting: second compound 3.16 µM, first compound 0.0316 µM.
Where [25] appears, read: second compound 3.16 µM, first compound 0.1 µM.
Where [26] appears, read: second compound 3.16 µM, first compound 0.316 µM.
[27] abbreviates: second compound 3.16 µM, first compound 1 µM.
[28] abbreviates: second compound 3.16 µM, first compound 3.16 µM.
Where [29] appears, read: second compound 3.16 µM, first compound 10 µM.
[30] abbreviates: second compound 10 µM, first compound 0.0316 µM.
Where [31] appears, read: second compound 10 µM, first compound 0.1 µM.
Where [32] appears, read: second compound 10 µM, first compound 0.316 µM.
The mark [33] stands for this setting: second compound 10 µM, first compound 1 µM.
Setting [34] is: second compound 10 µM, first compound 3.16 µM.
The mark [35] stands for this setting: second compound 10 µM, first compound 10 µM.

Values joined by “and” are separate entries in the source; they are usually repeats but may differ in a detail not shown here. Equal entries are not always repeated. Bounds are passed on as bounds.

With `COc1cc(C2c3cc4c(cc3C(OC3OC5COC(C)OC5C(O)C3O)C3COC(=O)C23)OCO4)cc(OC)c1O` (stereo not given), the viability, T/C – broadly, the result in the treated group divided by that in the control group, in per cent – is 89.7% and 87% (compound 0.00949 µM); 92.9% and 75.5% (compound 0.03 µM); 82.8% and 70.3% (compound 0.0949 µM); 78.1% and 74.6% (compound 0.3 µM); 68.8% and 57% (compound 0.949 µM); 56.8% and 48.7% (compound 3 µM). Besides, under “curve of compound”, the half-maximal inhibitory concentration (IC50) (usually the concentration that inhibits the measured activity by half) is > 3 µM and 2.64 µM.
With `Nc1ccccc1NC(=O)c1ccc(CNC(=O)OCc2cccnc2)cc1` + NC1CCC(NC2CC2c2ccccc2)CC1, the IC50 by setting is: under setting [1], 0.203 µM; under setting [2], 0.222 µM; under setting [3], 0.215 µM; under setting [4], 0.177 µM; under setting [5], 0.214 µM. The viability, T/C runs as follows: (second compound 0.1 µM, first compound 0.00949 µM) 80.6%; (second compound 0.1 µM, first compound 0.03 µM) 76%; (second compound 0.1 µM, first compound 0.0949 µM) 65.8%; (second compound 0.1 µM, first compound 0.3 µM) 42.1%; (second compound 0.1 µM, first compound 0.949 µM) 15.4%; (second compound 0.1 µM, first compound 3 µM) 1.76%. Also, the viability, T/C is 86.7% (second compound 0.316 µM, first compound 0.00949 µM); 83.8% (second compound 0.316 µM, first compound 0.03 µM); 66.4% (second compound 0.316 µM, first compound 0.0949 µM); 44.6% (second compound 0.316 µM, first compound 0.3 µM); 17% (second compound 0.316 µM, first compound 0.949 µM); 1.4% (second compound 0.316 µM, first compound 3 µM). For the same molecule, the viability, T/C was 76.8% (second compound 1 µM, first compound 0.00949 µM); 79.6% (second compound 1 µM, first compound 0.03 µM); 68.4% (second compound 1 µM, first compound 0.0949 µM); 40.9% (second compound 1 µM, first compound 0.3 µM); 17.2% (second compound 1 µM, first compound 0.949 µM); 1.13% (second compound 1 µM, first compound 3 µM). For the same molecule, the viability, T/C is, setting by setting: (second compound 3.16 µM, first compound 0.00949 µM) 73.6%; (second compound 3.16 µM, first compound 0.03 µM) 67.3%; (second compound 3.16 µM, first compound 0.0949 µM) 59.8%; (second compound 3.16 µM, first compound 0.3 µM) 42.7%; (second compound 3.16 µM, first compound 0.949 µM) 16%; (second compound 3.16 µM, first compound 3 µM) 0.8%. Besides, the viability, T/C is, setting by setting: (second compound 10 µM, first compound 0.00949 µM) 62%; (second compound 10 µM, first compound 0.03 µM) 59.3%; (second compound 10 µM, first compound 0.0949 µM) 57.4%; (second compound 10 µM, first compound 0.3 µM) 47%; (second compound 10 µM, first compound 0.949 µM) 16.3%; (second compound 10 µM, first compound 3 µM) 0.91%.
On to `COc1ccc([C@@H](O)c2cc(-c3ncnc4cc(N5CCOCC5)ccc34)c(F)cc2Cl)nn1`, for which the viability, T/C reads like this: (compound 0.0316 µM) 84.8% and 74.3%; (compound 0.1 µM) 62.5% and 53.8%; (compound 0.316 µM) 33.1% and 28.8%; (compound 1 µM) 19.1% and 18.4%; (compound 3.16 µM) 10.7% and 9.71%; (compound 10 µM) 6.93% and 6.16%. Besides, the IC50 (curve of compound) was 0.164 µM and 0.115 µM.
Turning to `CC[C@@]1(O)C(=O)OCc2c1cc1n(c2=O)Cc2cc3c(CN(C)C)c(O)ccc3nc2-1`, the viability, T/C is, setting by setting: (compound 0.000316 µM) 106% and 95.2%; (compound 0.001 µM) 103% and 95.8%; (compound 0.00316 µM) 86.4% and 82.6%; (compound 0.01 µM) 84.5% and 79.2%; (compound 0.0316 µM) 62.7% and 56.4%; (compound 0.1 µM) 33.7% and 32.4%. For the same molecule, the IC50 (curve of compound) was 0.0525 µM and 0.0446 µM.
For `Nc1ccccc1NC(=O)c1ccc(CNC(=O)OCc2cccnc2)cc1`, the viability, T/C was 91.2% and 95% (compound 0.00949 µM); 84.3% and 96.3% (compound 0.03 µM); 81.4% and 80.8% (compound 0.0949 µM); 53.1% and 62% (compound 0.3 µM); 19.8% and 24.2% (compound 0.949 µM); 1.79% and 6.46% (compound 3 µM). Also, the IC50 (curve of compound) is 0.342 µM and 0.416 µM.
`O=C(c1cc(Cc2n[nH]c(=O)c3ccccc23)ccc1F)N1CCN(C(=O)C2CC2)CC1` + NC1CC1c1ccc(-c2cccc(O)c2)cc1: the half-inhibitory concentration (IC50) was > 10 µM under setting [1]; > 10 µM under setting [2]; > 10 µM under setting [3]; > 10 µM under setting [4]; > 10 µM under setting [5]. Besides, the viability, T/C was 107% under setting [6]; 111% under setting [7]; 105% under setting [8]; 105% under setting [9]; 107% under setting [10]; 91.5% under setting [11]. Further, the viability, T/C is 109% under setting [12]; 113% under setting [13]; 111% under setting [14]; 108% under setting [15]; 102% under setting [16]; 97.8% under setting [17]. The viability, T/C reads like this: under setting [18], 107%; under setting [19], 110%; under setting [20], 105%; under setting [21], 99.1%; under setting [22], 97.6%; under setting [23], 96%. Besides, the viability, T/C is 101% under setting [24]; 105% under setting [25]; 104% under setting [26]; 103% under setting [27]; 95.2% under setting [28]; 91% under setting [29]. The viability, T/C was 102% under setting [30]; 105% under setting [31]; 107% under setting [32]; 101% under setting [33]; 102% under setting [34]; 88.4% under setting [35].
In the case of `CC(C)c1c(-c2ccccc2)nc2c(C#N)c[nH]n2c1=O`, the viability, T/C reads like this: (compound 0.0316 µM) 101% and 102%; (compound 0.1 µM) 104% and 102%; (compound 0.316 µM) 101% and 104%; (compound 1 µM) 103% and 97.9%; (compound 3.16 µM) 102% and 107%; (compound 10 µM) 101% and 107%. Besides, where the note is “curve of compound”, the IC50 is > 10 µM.
As to `COc1ccc([C@@H](O)c2cc(-c3ncnc4cc(N5CCOCC5)ccc34)c(F)cc2Cl)nn1` + NC1CC1c1ccc(-c2cccc(O)c2)cc1, the IC50 runs as follows: under setting [1], 0.0963 µM; under setting [2], 0.112 µM; under setting [3], 0.0962 µM; under setting [4], 0.089 µM; under setting [5], 0.0699 µM. In addition, the viability, T/C is, setting by setting: under setting [6], 75%; under setting [7], 49.5%; under setting [8], 28.1%; under setting [9], 16.7%; under setting [10], 9.62%; under setting [11], 5.97%. For the same molecule, the viability, T/C by setting is: under setting [12], 80.4%; under setting [13], 52.9%; under setting [14], 28.8%; under setting [15], 19.5%; under setting [16], 9.72%; under setting [17], 6.4%. In addition, the viability, T/C under setting [18] was 70.6%; the viability, T/C under setting [19] was 50.1%; the viability, T/C under setting [20] was 27.4%; the viability, T/C under setting [21] was 17.2%; the viability, T/C under setting [22] was 9.2%; the viability, T/C under setting [23] was 6.15%. In addition, the viability, T/C by setting is: under setting [24], 73.1%; under setting [25], 46.8%; under setting [26], 29.7%; under setting [27], 16.7%; under setting [28], 8.9%; under setting [29], 5.52%. In addition, the viability, T/C by setting is: under setting [30], 67.1%; under setting [31], 42.5%; under setting [32], 24.5%; under setting [33], 16.6%; under setting [34], 8.67%; under setting [35], 5.51%.
